In publication PMC6177136, “Hybrid topoisomerase I and HDAC inhibitors as dual action anticancer agents” (PLoS ONE, 2018):
Read-outs that look alike come from different tables or passages of the source.

How the values were obtained:
[1] = system: RPMI-8226; assay: Cytotoxicity assay (MTT, 72 h) RPMI-8226; assay type: cell-based; details: Homo sapiens, read-out: IC50 ± SD RPMI-8226
Protocol: (§1) Human tumor cells were seeded in 96-well cell culture plastic plates, allowed to attach, and exposed to scalar concentrations of the test compounds.

[2] = system: NCI-H460 NSCLC cells; assay: FACS analysis of cell cycle and apoptosis; assay type: cell-based, Human; details: 72 h at own IC80 dose, PI staining; for Sub-G0/1 (%): apoptosis
[3] = system: primary malignant pleural mesothelioma (MPM) cell lines; assay: Primary malignant pleural mesothelioma (MPM) cell lines (summary); assay type: cell-based; details: Homo sapiens, span over the cell line panel, 72 h, read-out: IC50 across primary mesothelioma cell lines (Table 7)
[4] = system: p53; assay: Western blot, p53 in NCI-H460 cells; assay type: cell-based, Human; details: 24 h; SAHA 5 μM, SN38 0.05 μM, 3d 0.125–0.2–0.5 μM
Protocol: (§2) The supernatant, containing the total proteins extracts, were transferred in new vials. The protein concentration was measured by Bradford Protein Assay. Equal amounts of proteins for each sample were then resolved by SDS-PAGE and loaded on 10–12% polyacrilamide gels. The proteins were then transferred on nitrocellulose membranes. Molecular weights were estimated based upon the relative migration with molecular weight protein markers.
(§3) The non-specific binding was blocked by incubation of membranes in TBS-tween (25 mM Tris, 150 mM NaCl, 0.1% Tween 20) with 5% nonfat dry milk (BIORAD, Milan) for 60 minutes. Subsequently, the membrane was incubated overnight with primary antibodies: anti-Histone H4 (Millipore, 1:500), anti-acetyl-H4 (Santa Cruz, 1:1000) anti-p21 (Santa Cruz, 1:1000), anti-acetyl-tubulin (abcam, 1:1000), anti-α-tubulin (Sigma, 1:5000), anti β-actin (Sigma, 1:5000) and anti-Topoisomerase 1 (Santa Cruz, 1:500). After three washes with TBST blots were incubated with HRP-coniugated secondary anti-mouse and anti-rabbit (Santa Cruz, 1:5000) 1 hour at room temperature. After three washes with TBST the blots were developed with ECL substrate (GE Healthcare) and chemiluminescence detected by ChemiDoc Imaging System (Biorad). The optical density of the protein bands detected by western blotting was normalized on α -tubulin levels and analyzed by ChemiDoc software (Biorad).
(§4) Cells were lysed in 0.5% NP-40 and 40 μg of total proteins were loaded on NuPAGE 4–12% (Invitrogen), transferred to a nitrocellulose paper and probed with specific antibodies.

[5] = system: p21; assay: Western blot, p21 in NCI-H460 cells; assay type: cell-based, Human; details: 24 h; SAHA 5 μM, SN38 0.05 μM, 3d 0.125–0.2–0.5 μM
Protocol: as §2
as §3, with “software (Biorad). […]” for “software (Biorad).”

[6] = system: p16; assay: Western blot, p16 in NCI-H460 cells; assay type: cell-based, Human; details: 24 h; SAHA 5 μM, SN38 0.05 μM, 3d 0.125–0.2–0.5 μM
Protocol: as §2, §3, §4

[7] = system: H2A.X; assay: Western blot, H2A.X induction in NCI-H460 cells; assay type: cell-based, Human; details: 24 h; SAHA 5 μM, SN38 0.05 μM, 3d 0.125–0.2–0.5 μM
Protocol: as §2, §3, §4

[8] = system: L-428; assay: Cytotoxicity assay (MTT, 72 h) L-428; assay type: cell-based, Human; details: for IC50: Homo sapiens, L-428, 72 h, MTT assay, read-out: IC50 ± SD L-428
Protocol: as §1

[9] = system: CycD1; assay: Western blot, CycD1 in NCI-H460 cells; assay type: cell-based, Human; details: 24 h; SAHA 5 μM, SN38 0.05 μM, 3d 0.125–0.2–0.5 μM
Protocol: as §2, §3, §4

[10] = system: OCI-LY3; assay: Cytotoxicity assay (MTT, 72 h) OCI-LY3; assay type: cell-based, Human; details: for IC50: Homo sapiens, OCI-Ly3, 72 h, MTT assay, read-out: IC50 ± SD OCI-LY3
Protocol: as §1

[11] = system: MM491; assay: Cytotoxicity assay, primary mesothelioma MM491; assay type: cell-based, Human; details: biphasic, 72 h, SBR assay; read-out: IC50 ± SD MM491
[12] = system: MM404; assay: Cytotoxicity assay, primary mesothelioma MM404; assay type: cell-based, Human; details: epithelioid, 72 h, SBR assay; read-out: IC50 ± SD MM404
[13] = system: MM473; assay: Cytotoxicity assay, primary mesothelioma MM473; assay type: cell-based, Human; details: epithelioid, 72 h, SBR assay; read-out: IC50 ± SD MM473
[14] = system: MM432; assay: Cytotoxicity assay, primary mesothelioma MM432; assay type: cell-based, Human; details: for IC50: sarcomatoid, 72 h, SBR assay, read-out: IC50 ± SD MM432
[15] = system: MM487; assay: Cytotoxicity assay, primary mesothelioma MM487; assay type: cell-based, Human; details: for IC50: biphasic, 72 h, SBR assay, read-out: IC50 ± SD MM487
[16] = system: MM317; assay: Cytotoxicity assay, primary mesothelioma MM317; assay type: cell-based, Human; details: epithelioid, 72 h, SBR assay, read-out: IC50 ± SD MM317
[17] = system: MM288; assay: Cytotoxicity assay, primary mesothelioma MM288; assay type: cell-based, Human; details: for IC50: epithelioid, 72 h, SBR assay, read-out: IC50 ± SD MM288
[18] = system: MM481; assay: Cytotoxicity assay, primary mesothelioma MM481; assay type: cell-based, Human; details: epithelioid, 72 h, SBR assay; read-out: IC50 ± SD MM481
[19] = system: HT29; assay: Cytotoxicity assay (SRB, 72 h) HT29; assay type: cell-based, Human; details: Homo sapiens, HT-29, read-out: IC50 ± SD HT29
[20] = system: A431; assay: Cytotoxicity assay (SRB, 72 h) A431; assay type: cell-based, Human; details: Homo sapiens, A-431, read-out: IC50 ± SD A431
[21] = system: Capan 1; assay: Cytotoxicity assay (SRB, 72 h) Capan 1; assay type: cell-based, Human; details: Homo sapiens, CAPAN-1, read-out: IC50 ± SD Capan 1
[22] = system: A2780-Dx; assay: Cytotoxicity assay (SRB, 72 h) A2780-Dx; assay type: cell-based, Human; details: for IC50: Homo sapiens, A2780/DX, 72 h, SRB assay, multidrug-resistant ovarian carcinoma, read-out: IC50 ± SD A2780-Dx
[23] = system: NCI-H460; assay: Cytotoxicity assay (SRB, 72 h) NCI-H460; assay type: cell-based, Human; details: Homo sapiens, NCI-H460; 72 h, SRB assay; read-out: IC50 ± SD NCI-H460
[24] = system: HepG2; assay: Cytotoxicity assay (SRB, 72 h) HepG2; assay type: cell-based, Human; details: Homo sapiens, HepG2, read-out: IC50 ± SD HepG2
[25] = system: A2780; assay: Cytotoxicity assay (SRB, 72 h) A2780; assay type: cell-based, Human; details: Homo sapiens, A2780, read-out: IC50 ± SD A2780
[26] = system: DU145; assay: Cytotoxicity assay (SRB, 72 h) DU145; assay type: cell-based, Human; details: Homo sapiens, DU-145, read-out: IC50 ± SD DU145
[27] = system: HeLa; assay: Cytotoxicity assay (SRB, 72 h) HeLa; assay type: cell-based, Human; details: Homo sapiens, HeLa, read-out: IC50 ± SD HeLa
[28] = system: KM-H2; assay: Cytotoxicity assay (MTT, 72 h) KM-H2; assay type: cell-based, Human
[29] = system: human epithelioid mesothelioma MM473-Luc; assay: In vivo antitumor activity, orthotopic MM473-Luc xenograft; details: i.v. 35 mg/kg, q4dx3, treatment from day 15
[30] = system: NB4; assay: Cytotoxicity assay (MTT, 72 h) NB4; assay type: cell-based, Human; details: Homo sapiens, NB-4, read-out: IC50 ± SD NB4
[31] = system: DG-75; assay: Cytotoxicity assay (MTT, 72 h) DG-75; assay type: cell-based, Human
[32] = system: series of human tumor cell lines; assay: Antiproliferative activity, series of human tumor cell lines (summary); assay type: cell-based; details: span over the cell line panel, 72 h, SRB assay, read-out: IC50 across the human tumor cell lines of Table 3
[33] = system: JECO-1; assay: Cytotoxicity assay (MTT, 72 h) JECO-1; assay type: cell-based, Human
[34] = system: U-2932; assay: Cytotoxicity assay (MTT, 72 h) U-2932; assay type: cell-based, Human; details: Homo sapiens, U2932, read-out: IC50 ± SD U-2932
[35] = system: MINO; assay: Cytotoxicity assay (MTT, 72 h) MINO; assay type: cell-based, Human
[36] = system: hematologic cancer cell lines; assay: Screening on hematologic cancer cell lines (summary); assay type: cell-based; details: Homo sapiens, read-out: IC50 across hematologic cancer cell lines (Tables 5 and 6); span over the cell line panel, 72 h, MTT assay
[37] = system: MAVER-2; assay: Cytotoxicity assay (MTT, 72 h) MAVER-2; assay type: cell-based, Human; details: Homo sapiens, read-out: IC50 ± SD MAVER-2
[38] = meaning not defined in the paper
[39] = meaning not defined in the paper, given beside >10 μM

Structure (SMILES): O=C(CCCCCCC(=O)Nc1ccccc1)NO [SAHA, suberoylanilide hydroxamic acid]
- IC50 [1]: 1.98 ± 0.5 µM
- G0/1 (%) [2]: 65.2%
- G2/M (%) [2]: 23.1%
- S (%) [2]: 11.7%
- Sub-G0/1 (%) [2]: 1.8%
- IC50 [3]: 4 to 12 µM
- p53 activation [4]: less effective in p53 up-regulation
- expression of p21 [5]: induction of p21
- P16 regulation [6]: down
- H2A.X induction (DNA damage) [7]: completely ineffective in H2A.X induction
- IC50 [8]: 2.3 ± 0.5 µM
- CycD1 regulation [9]: up-regulated
- IC50 [10]: 0.99 ± 0.3 µM

Structure (SMILES): O=c1[nH]cc(F)c(=O)[nH]1 [Compound 5-FU]
- IC50 [11]: 44 ± 10.3 µM
- IC50 [12]: 52.2 ± 8.7 µM
- IC50 [13]: 35.2 ± 8.4 µM
- percentage in parentheses after IC50 >200, MM432 [14, 38]: 34%
- IC50 [14]: > 200 µM
- IC50 [15]: > 200 µM
- percentage in parentheses after IC50 >200, MM487 [15, 38]: 48%
- IC50 [16]: 17.9 ± 3.1 µM
- IC50 [17]: > 200 µM
- percentage in parentheses after IC50 >200, MM288 [17, 38]: 35%
- IC50 [18]: 27.4 ± 2.2 µM

Structure (SMILES): CC[C@@]1(O)C(=O)OCc2c1cc1n(c2=O)Cc2c-1nc1ccccc1c2C=NOCCCCCCC(=O)NO [Compound 3c, 7-(camptothecin-7-ylmethyleneaminooxy)-heptanoic acid hydroxyamide]
- IC50 [19]: 0.045 ± 0.01 µM
- IC50 [20]: 0.026 ± 0.001 µM
- IC50 [21]: 0.043 ± 0.003 µM
- RI (Resistance Index) ([22]; A2780-Dx versus A2780): 1.7
- IC50 [22]: 0.065 ± 0.01 µM
- IC50 [23]: 0.198 ± 0.18 µM
- IC50 [24]: 0.68 ± 0.2 µM
- IC50 [25]: 0.038 ± 0.008 µM
- IC50 [26]: 0.029 ± 0.001 µM
- IC50 [27]: 2.4 ± 0.5 µM

Structure (SMILES): CCc1c2c(nc3ccc(OC(=O)N4CCC(N5CCCCC5)CC4)cc13)-c1cc3c(c(=O)n1C2)COC(=O)[C@]3(O)CC [Irinotecan]
- IC50 ([28]; Homo sapiens, KM-H2, 72 h, MTT assay, read-out: IC50 ± SD KM-H2): > 10 µM
- percentage in parentheses after IC50 >10, KM-H2 [28, 39]: 12%
- IC50 [19]: 4.8 ± 0.4 µM
- G0/1 (%) [2]: 7.9%
- G2/M (%) [2]: 3.2%
- S (%) [2]: 89.0%
- Sub-G0/1 (%) [2]: 2.7%
- antitumor activity (BLI signal, average radiance) [29]: only a marginal antitumor effect
- IC50 [3]: > 7 µM
- IC50 [30]: 1 ± 0.3 µM
- IC50 ([31]; Homo sapiens, DG-75, 72 h, MTT assay, read-out: IC50 ± SD DG-75): > 10 µM
- percentage in parentheses after IC50 >10, DG-75 [31, 39]: 0%
- IC50 [20]: 4.1 ± 0.1 µM
- IC50 [32]: > 1.5 µM
- IC50 [21]: 1.5 ± 0.1 µM
- IC50 ([14]; Homo sapiens): 10 ± 2 µM
- IC50 ([15]; Homo sapiens, MM487): 9.4 ± 0.7 µM
- IC50 ([33]; Homo sapiens, 72 h, MTT assay, read-out: IC50 ± SD JECO-1): > 10 µM
- percentage in parentheses after IC50 >10, JECO-1 [33, 39]: 48%
- IC50 ([16]; Homo sapiens): 7 ± 1 µM
- IC50 [22]: 20.1 ± 2.9 µM
- IC50 [34]: 4.4 ± 0.8 µM
- IC50 [23]: 2.4 ± 0.1 µM
- IC50 [24]: 4 ± 0.8 µM
- IC50 [8]: > 10 µM
- percentage in parentheses after IC50 >10, L-428 [8, 39]: 0%
- IC50 [25]: 3.8 ± 0.5 µM
- IC50 [26]: 2.8 ± 0.07 µM
- IC50 ([35]; Homo sapiens, MINO, 72 h, MTT assay, read-out: IC50 ± SD MINO): > 10 µM
- percentage in parentheses after IC50 >10, MINO [35, 39]: 36%
- IC50 [27]: 5.8 ± 0.6 µM
- IC50 [10]: > 10 µM
- percentage in parentheses after IC50 >10, OCI-LY3 [10, 39]: 0%
- IC50 ([17]; Homo sapiens): 14.9 ± 2 µM
- IC50 [36]: > 10 µM
- IC50 [37]: 0.74 ± 0.1 µM
